From patent US20250145575A1, “MACROMOLECULE-SUPPORTED 8-SULFONYL-BENZAZEPINE COMPOUNDS AND THEIR USES” (BOLT BIOTHERAPEUTICS, INC., priority 2022, published 2025) come the findings set out here.

The target of one assay is T1, human TLR7 (Homo sapiens, UniProt Q9NYK1).
T1 construct: host or cells: HEK293 reporter cells
T1 sequence (Q9NYK1 27-1049): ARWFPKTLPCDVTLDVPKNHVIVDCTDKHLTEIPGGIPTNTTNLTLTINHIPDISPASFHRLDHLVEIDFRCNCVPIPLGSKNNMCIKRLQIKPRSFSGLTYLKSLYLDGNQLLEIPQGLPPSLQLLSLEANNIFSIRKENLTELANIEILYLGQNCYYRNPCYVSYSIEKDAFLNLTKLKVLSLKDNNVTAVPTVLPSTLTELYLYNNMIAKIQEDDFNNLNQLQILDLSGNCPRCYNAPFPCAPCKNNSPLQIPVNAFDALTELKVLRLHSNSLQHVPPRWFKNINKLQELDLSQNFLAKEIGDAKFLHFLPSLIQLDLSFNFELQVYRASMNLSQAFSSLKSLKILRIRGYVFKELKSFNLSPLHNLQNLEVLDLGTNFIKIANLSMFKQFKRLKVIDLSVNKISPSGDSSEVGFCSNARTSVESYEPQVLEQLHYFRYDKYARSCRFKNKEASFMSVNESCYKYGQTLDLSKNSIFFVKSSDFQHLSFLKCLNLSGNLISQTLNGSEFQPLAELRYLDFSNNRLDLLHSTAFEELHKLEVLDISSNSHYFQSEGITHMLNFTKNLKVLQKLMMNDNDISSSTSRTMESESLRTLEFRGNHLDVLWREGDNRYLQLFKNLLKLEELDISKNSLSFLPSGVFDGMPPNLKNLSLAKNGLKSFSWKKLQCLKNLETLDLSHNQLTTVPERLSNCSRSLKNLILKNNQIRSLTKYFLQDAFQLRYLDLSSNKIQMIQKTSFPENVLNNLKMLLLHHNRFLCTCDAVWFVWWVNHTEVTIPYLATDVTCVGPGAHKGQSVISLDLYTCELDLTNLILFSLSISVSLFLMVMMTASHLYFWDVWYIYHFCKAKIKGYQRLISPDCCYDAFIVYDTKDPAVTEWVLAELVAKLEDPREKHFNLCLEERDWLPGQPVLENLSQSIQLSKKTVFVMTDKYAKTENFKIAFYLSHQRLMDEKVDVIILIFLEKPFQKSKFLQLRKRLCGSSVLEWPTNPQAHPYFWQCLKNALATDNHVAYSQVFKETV
Nature of the assay: HEK293 NFKB reporter assay, human TLR7. The assay is classed as cell-based. The settings on record: HEK293 reporter cells expressing human TLR7; read-out: HEK293 hTLR7 EC50. Here is the method: (§1) Exemplary 8-sulfonyl-2-aminobenzazepine compounds (8SO2Bz) of the invention were synthesized, purified, and characterized by mass spectrometry and shown to have the expected mass. Additional experimental procedures are found in the Examples. Activity against HEK293 NFKB reporter cells expressing human TLR7 or human TLR8 was measured according to Example 202.
(§2) Example 202 HEK Reporter Assay
(§3) HEK293 reporter cells expressing human TLR7 or human TLR8 were purchased from Invivogen and vendor protocols were followed for cellular propagation and experimentation. Briefly, cells were grown to 80-85% confluence at 5% CO2 in DMEM supplemented with 10% FBS, Zeocin, and Blasticidin. Cells were then seeded in 96-well flat plates at 4×10^4 cells/well with substrate containing HEK detection medium and immunostimulatory molecules (MSC). Activity was measured using a plate reader at 620-655 nm wavelength.
A general note: In a reporter assay the amount or activity of a reporter protein is the signal.

For a further assay, the target named is T2, human TLR8 (Homo sapiens, UniProt Q9NR97).
T2 construct: host or cells: HEK293 reporter cells
T2 sequence (Q9NR97 27-1041): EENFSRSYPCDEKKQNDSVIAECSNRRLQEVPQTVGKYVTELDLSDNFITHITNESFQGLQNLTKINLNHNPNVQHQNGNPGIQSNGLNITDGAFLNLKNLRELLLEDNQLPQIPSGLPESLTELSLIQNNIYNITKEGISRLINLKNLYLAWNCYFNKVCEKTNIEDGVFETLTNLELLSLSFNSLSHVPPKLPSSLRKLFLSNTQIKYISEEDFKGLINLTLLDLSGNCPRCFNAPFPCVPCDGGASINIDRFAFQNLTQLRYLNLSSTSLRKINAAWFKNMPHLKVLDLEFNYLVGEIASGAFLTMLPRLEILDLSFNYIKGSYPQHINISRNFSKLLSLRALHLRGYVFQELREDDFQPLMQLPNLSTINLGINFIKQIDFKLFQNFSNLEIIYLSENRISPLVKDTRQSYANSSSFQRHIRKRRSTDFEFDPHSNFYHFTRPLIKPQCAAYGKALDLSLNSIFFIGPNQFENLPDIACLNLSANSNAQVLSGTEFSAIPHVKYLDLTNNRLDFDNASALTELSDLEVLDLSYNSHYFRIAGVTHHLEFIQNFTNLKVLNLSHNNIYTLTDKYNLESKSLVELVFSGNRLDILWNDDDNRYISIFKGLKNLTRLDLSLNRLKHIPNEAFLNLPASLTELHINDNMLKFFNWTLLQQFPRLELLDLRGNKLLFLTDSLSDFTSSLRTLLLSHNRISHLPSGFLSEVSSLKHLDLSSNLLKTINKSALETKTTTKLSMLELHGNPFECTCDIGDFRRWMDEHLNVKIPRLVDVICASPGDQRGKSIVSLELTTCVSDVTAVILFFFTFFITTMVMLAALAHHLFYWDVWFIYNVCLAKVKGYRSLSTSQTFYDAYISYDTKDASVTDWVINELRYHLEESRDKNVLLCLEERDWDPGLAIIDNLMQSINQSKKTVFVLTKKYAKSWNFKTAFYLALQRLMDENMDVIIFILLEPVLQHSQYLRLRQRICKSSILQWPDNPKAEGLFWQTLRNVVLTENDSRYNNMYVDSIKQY
Briefly: HEK293 NFKB reporter assay, human TLR8. The class given is cell-based. The following applies: HEK293 reporter cells expressing human TLR8; read-out: HEK293 hTLR8 EC50. As to the method:
as §1, §2, §3

The EC50 is the concentration needed to bring the measured effect to its halfway point. With `CCCN(OCC)C(=O)C1=Cc2ccc(S(=O)(=O)c3ccc(C(=O)OC)cc3)cc2N=C(N)C1` [8SO2Bz-1], the EC50 on human TLR7 is more than 9000 nM.
Regarding `CCCN(OCCCC(=O)OC(C)(C)C)C(=O)C1=Cc2ccc(S(=O)(=O)N(C)C)cc2N=C(N)C1` [8SO2Bz-2], the half-maximal effective concentration (EC50) on human TLR8 was less than 2.3 nM; at human TLR7, 395 nM.
With `CCCN(OCC)C(=O)C1=Cc2ccc(S(=O)(=O)NC)cc2N=C(N)C1` [8SO2Bz-3], at human TLR7, the EC50 is more than 5000 nM.
